Reference: patent publication US20150119373A1, “NOVEL BETULINIC ACID DERIVATIVES AS HIV INHIBITORS” (HETERO RESEARCH FOUNDATION, priority 2012, published 2015)
Where two headings read alike, the source gives them in different places.

Assays:
HIV-1 strain 92HT599 = assay: Antiviral activity: p24 estimation in MT2 cells infected with HIV-1 strain 92HT599; type: cell-based; details: Human immunodeficiency virus 1, MT2 cells, HIV-1 92HT599, ~96 hours, p24; for inhibition at 0.1 µM: 100 nM, read-out: Antiviral activity % inhibition 100 nM; for inhibition at 1 µM: 1000 nM, read-out: Antiviral activity % inhibition 1000 nM
Method: MT2 cells were infected with HIV-1 strain 92HT599 (10 TCID 50/30000 cells). The infected cells were plated at the concentration of […] cells per well in 96 well plate. Test compound was added to the micro plate in defined format with the final concentration of DMSO (vehicle) is not more than 1%. Incubation was carried out in CO2 incubator for ˜96 hours for viral infection. At the end of incubation period an aliquot from each well was taken for p24 estimation. The quantitation of p24 is an index for antiviral activity of the compound. Percent inhibition was calculated with reference to control values (vehicle controls).
p-24 estimation was carried out using Advance biosciences kit as per the procedure detailed by supplier.

[1] = Single dose oral pharmacokinetic study in mice; type: in vivo; details: for AUC(0-inf) / Cmax / Tmax / AUC(0-t): mouse, plasma
Method: The test item was administered through oral route to animals (rat/mice) at 30 mg/kg dose in a suitable vehicle at 10 ml/kg dose volume. Blood samples (˜50 uL at each time point) were collected from retro-orbital plexus using K3 EDTA as anticoagulant in eppendorf tubes at defined time intervals under light ether anesthesia. The samples were centrifuged at 3500×g to separate plasma and stored at −80° C. until analysis.
Sample analysis: Test samples were analyzed using LC-MS-MS after developing fit-for-purpose method for each of test compound.

[2] = Cyto-toxicity assay (MTT) in MT2 cells without virus; type: cell-based; details: human
Method: For cyto-toxicity assay the same amount of MT2 cells as in antiviral assay without virus was added to the 96 well plates. The cyto-toxicity was measured using MTT reagent in parallel with p24 estimation. The percent viability is calculated in comparison with vehicle control.

[3] = Oral PK @ 30 mg/ kg dose in mice (Table 6)
[4] = Oral PK @ 30 mg/ kg dose in mice (Table 6), read-out: AUCt
[5] = Mice oral PK @30 mg/kg (Table 5)
[6] = Mice oral PK @30 mg/kg (Table 5), read-out: AUC 0-t

SMILES | inhibition at 0.1 µM (HIV-1 strain 92HT599) [%] | inhibition at 1 µM (HIV-1 strain 92HT599) [%] | Tlast [1, 3] [h] | AUC(0-inf) [1, 3] [µg·h/mL] | Cmax [1, 3] [ng/mL] | Tmax [1, 3] [h] | AUC(0-t) [1, 4] [µg·h/mL] | viability at 100 nM [2] [%] | viability at 1000 nM [2] [%] | Cmax [1, 5] [ng/mL] | Tmax [1, 5] [h] | AUC(0-t) [1, 6] [µg·h/mL]
CC1([C@@H]2CC[C@]3(C(=O)N4CCOCC4)CC[C@]4(C)[C@H](CC[C@@H]5[C@@]6(C)CC[C@H](OC(=O)[C@H]7C[C@@H](C(=O)O)C7(C)C)C(C)(C)[C@@H]6CC[C@]54C)[C@@H]23)CC1 [Example 28, (1R,3S)-2,2-dimethyl-3-((((1R,3aS,5aR,5bR,7aR,9S,11aR,11bR,13aR,13bR)-5a,5b,8,8,11a-pentamethyl-1-(1-methylcyclopropyl)-3a-(morpholine-4-carbonyl)icosahydro-1H-cyclopenta[a]chrysen-9-yl)oxy)carbonyl)cyclobutane-1-carboxylic acid] | 98 | 99 | 48 | 398 | 4500 | 16 | 171 | 81 | 78 | – | – | –
CCN1CCN(C(=O)[C@]23CC[C@@H](C4(C)CC4)[C@@H]2[C@H]2CC[C@@H]4[C@@]5(C)CC[C@H](OC(=O)[C@H]6C[C@@H](C(=O)O)C6(C)C)C(C)(C)[C@@H]5CC[C@@]4(C)[C@]2(C)CC3)CC1 [Example 13, (1R,3S)-3-(((1R,3aS,5aR,5bR,7aR,9S,11aR,11bR,13aR,13bR)-3a-(4-ethylpiperazine-1-carbonyl)-5a,5b,8,8,11a-pentamethyl-1-(1-methylcyclopropyl)icosahydro-1H-cyclopenta[a]chrysen-9-yloxy)carbonyl)-2,2-dimethylcyclobutanecarboxylic acid] | 83 | 99 | – | – | – | – | – | 86 | 79 | 12000 | 20 | 456
CC(C)(CC(=O)O[C@H]1CC[C@]2(C)[C@H]3CC[C@@H]4[C@H]5[C@H]([C@@](C)(O)CO)CC[C@]5(C(=O)N[C@@H]5C[C@H](C(=O)N6CCCCC6)C5(C)C)CC[C@@]4(C)[C@]3(C)CC[C@H]2C1(C)C)C(=O)O [Example 15, 4-((1R,3aS,5aR,5bR,7aR,9S,11aR,11bR,13aR,13bS)-1-(1,2-dihydroxypropan-2-yl)-3a-((1R,3S)-2,2-dimethyl-3-(piperidine-1-carbonyl)cyclobutylcarbamoyl)-5a,5b,8,8,11a-pentamethylicosahydro-1H-cyclopenta[a]chrysen-9-yloxy)-2,2-dimethyl-4-oxobutanoicacid] | 93 | 97 | – | – | – | – | – | 95 | 95 | 3780 | 0.63 | 31.4
COCCOC1CCN(C(=O)[C@]23CC[C@@H](C4(C)CC4)[C@@H]2[C@H]2CC[C@@H]4[C@@]5(C)CC[C@H](OC(=O)CC(C)(C)C(=O)O)C(C)(C)[C@@H]5CC[C@@]4(C)[C@]2(C)CC3)CC1 [Example 41, 4-(((1R,3aS,5aR,5bR,7aR,9S,11aR,11bR,13aR,13bR)-3a-(4-(2-methoxyethoxyl)piperidine-1-carbonyl)-5a,5b,8,8,11a-pentamethyl-1-(1-methylcyclopropyl)icosahydro-1H-cyclopenta[a]chrysen-9-yl)oxy)-2,2-dimethyl-4-oxobutanoic acid] | 97 | 99 | 48 | 240 | 9200 | 6.5 | 214 | 86 | 86 | – | – | –
COCCOCCN1CCN(C(=O)[C@]23CC[C@@H](C4(C)CC4)[C@@H]2[C@H]2CC[C@@H]4[C@@]5(C)CC[C@H](OC(=O)CC(C)(C)C(=O)O)C(C)(C)[C@@H]5CC[C@@]4(C)[C@]2(C)CC3)CC1 [Example 39, 4-(((1R,3aS,5aR,5bR,7aR,9S,11aR,11bR,13aR,13bR)-3a-(4-(2-(2-methoxyethoxyl)ethyl)piperazine-1-carbonyl)-5a,5b,8,8,11a-pentamethyl-1-(1-methylcyclopropyl)icosahydro-1H-cyclopenta[a]chrysen-9-yl)oxy)-2,2-dimethyl-4-oxobutanoic acid] | 97 | 99 | 48 | 119 | 7000 | 4 | 111 | 83 | 88 | – | – | –
CC(C)(CC(=O)O[C@H]1CC[C@]2(C)[C@H]3CC[C@@H]4[C@H]5[C@H](C6(C)CC6)CC[C@]5(C(=O)N5CCC(C#N)(c6ccccc6)CC5)CC[C@@]4(C)[C@]3(C)CC[C@H]2C1(C)C)C(=O)O [Example 56, 4-((1R,3aS,5aR,5bR,7aR,9S,11aR,11bR,13aR,13bR)-3a-(4-cyano-4-phenylpiperidine-1-carbonyl)-5a,5b,8,8,11a-pentamethyl-1-(1-methylcyclopropyl)icosahydro-1H-cyclopenta[a]chrysen-9-yloxy)-2,2-dimethyl-4-oxobutanoic acid] | 76 | 99 | 24 | 185 | 5900 | 7 | 95.5 | 83 | 80 | – | – | –
CC1([C@@H]2CC[C@]3(C(=O)N[C@@H]4C[C@H](C(=O)N5CCCCC5)C4(C)C)CC[C@]4(C)[C@H](CC[C@@H]5[C@@]6(C)CC[C@H](OC(=O)[C@H]7C[C@@H](C(=O)O)C7(C)C)C(C)(C)[C@@H]6CC[C@]54C)[C@@H]23)CC1 [Example 23, (1R,3S)-3-((((1R,3aS,5aR,5bR,7aR,9S,11aR,11bR,13aR,13bR)-3a-(((1R,3S)-2,2-dimethyl-3-(piperidine-1-carbonyl)cyclobutyl)carbamoyl)-5a,5b,8,8,11a-pentamethyl-1-(1-methylcyclopropyl)icosahydro-1H-cyclopenta[a]chrysen-9-yl)oxy)carbonyl)-2,2-dimethylcyclobutane-1-carboxylic acid] | 100 | 100 | 48 | 628 | 11000 | 4.5 | 324 | 100 | 93 | – | – | –
CC(C)(CC(=O)O[C@H]1CC[C@]2(C)[C@H]3CC[C@@H]4[C@H]5[C@H](C6(C)CC6)CC[C@]5(C(=O)N5CCOCC5)CC[C@@]4(C)[C@]3(C)CC[C@H]2C1(C)C)C(=O)O [Example 27, 2,2-dimethyl-4-oxo-4-(((1R,3aS,5aR,5bR,7aR,9S,11aR,1bR,13aR,13bR)-5a,5b,8,8,11a-pentamethyl-1-(1-methylcyclopropyl)-3a-(morpholine-4-carbonyl)icosahydro-1H-cyclopenta[a]chrysen-9-yl)oxy)butanoic acid] | 94 | 88 | 48 | 106 | 7000 | 3.5 | 101 | 100 | 94 | – | – | –
CC1([C@@H]2CC[C@]3(C(=O)N4CCN(CCN5CCOCC5)CC4)CC[C@]4(C)[C@H](CC[C@@H]5[C@@]6(C)CC[C@H](OC(=O)[C@H]7C[C@@H](C(=O)O)C7(C)C)C(C)(C)[C@@H]6CC[C@]54C)[C@@H]23)CC1 [Example 32] | 99 | 99 | 48 | 240 | 9200 | 6.5 | 214 | 100 | 95 | – | – | –
C=C(C)[C@@H]1CC[C@]2(C(=O)N[C@@H]3C[C@H](c4nnc(C)o4)C3(C)C)CC[C@]3(C)[C@H](CC[C@@H]4[C@@]5(C)CC[C@H](OC(=O)[C@H]6C[C@@H](C(=O)O)C6(C)C)C(C)(C)[C@@H]5CC[C@]43C)[C@@H]12 [Example 21, (1R,3S)-3-(((1R,3aS,5aR,5bR,7aR,9S,11aR,11bR,13aR,13bR)-3a-((1R,3S)-2,2-dimethyl-3-(5-methyl-1,3,4-oxadiazol-2-yl)cyclobutylcarbamoyl)-5a,5b,8,8,11a-pentamethyl-1-(prop-1-en-2-yl)icosahydro-1H-cyclopenta[a]chrysen-9-yloxy)carbonyl)-2,2-dimethylcyclobutane carboxylicacid] | 100 | 100 | 24 | 185 | 5900 | 7 | 95.5 | 94 | 96 | – | – | –
